Test results from patent US11020383B2, “Methods for the treatment of cancer metastasis” (THE BOARD OF REGENTS OF THE UNIVERSITY OF TEXAS SYSTEM, priority 2017, dated 2021).
Entries after “also recorded” stand apart in the source; their conditions may differ.

Columns and labels:
[1] = system: human prostate cancer androgen resistant C4-2 cells; test: Growth of primary tumor in nude mice xenografted with C4-2 cells; format: in vivo
From the text: In the vehicle-treated mouse, the tumor grew by size more than twice in the span of four weeks, whereas in the B1-treated mouse the tumor shrunk to about 50% of the size at the start of treatment (FIG. 2).
As shown herein, B1 exerts anti-metastatic actions with multiple mechanisms. First, the drug attenuates the growth of the primary tumor. Large tumors shed large number of metastasis seeding circulating tumor cells into circulation, thus increasing the chance of successful colonization of metastatic sites.
(§1) Importantly, in the second, third and fourth mechanisms, the drug acts independently from the size of primary tumor. This was an unexpected effect.

[2] = system: circulating tumor cells (CTCs); test: Enumeration of circulating tumor cells in blood of xenografted mice; format: in vivo, nude mice
Description: (§2) CTCs and macrophages were isolated from the blood of two nude mice xenografted with human prostate cancer androgen resistant C4-2 cells and treated biweekly intratumorally with vehicle or B1 (30 mg/kg). In the vehicle-treated mouse, the tumor grew by size more than twice in the span of four weeks, whereas in the B1-treated mouse the tumor shrunk to about 50% of the size at the start of treatment (FIG. 2).
The anti-tumor actions of B1 in nude mice were confirmed by analysis of circulating tumor cells (CTCs). Enumeration of CTCs is used as a prognostic marker in cancer patients. The enumeration was extended to include not only canonical CTCs positive for epithelial marker EpCAM, but also EpCAM negative CTC-like cells positive for markers of epithelial-mesenchymal transition (EMT), indicative of increased aggressiveness of the cells (Chen et al., 2013).

M1 and M2 macrophages = test: Enumeration of circulating M1 and M2 macrophages in blood of xenografted mice; format: in vivo, nude mice
Description: as §2
However, the numbers of circulating macrophages were also much lower in the blood of the B1-treated mouse. […] Consistently, the ratios of pro-tumor and anti-tumor macrophages in control and B1-treated mouse were approximated as 2.5 and 0.5, respectively.
Third, the drug boosts natural anti-cancer immune response. It promotes anti-metastatic profile of macrophages co-purifying with CTCs in the nude mice xenografted with human cultured androgen-independent prostate cancer cells C4-2, and treated with vehicle or with B1 (30 mg/kg). […] Data from one control and one treated mouse are presented in FIG. 5, with data from seven control and six treated mice presented below.

[3] = system: circulating tumor cells (CTCs); test: Biophysical profiling of CTCs by atomic force microscopy (PF QNM AFM); format: in vivo, nude mice; conditions: CTCs from blood of B1-treated vs control mice
From the text: It was postulated that the differences in profiles of circulating macrophages, which may destroy CTCs or help them in seeding metastases, are indicative of the metastatic potential of CTCs. To determine the metastatic potential of CTCs isolated from the blood of human prostate cancer patients and mouse cancer models, biophysical profiling by atomic force microscopy (AFM) was employed. This method was used to confirm the decreased aggressiveness of CTCs isolated from the B1-treated mouse.
In short, to determine the mechanical phenotype of cells Peak Force Quantitative Nanomechanical Atomic Force Microscopy (PF QNM AFM) imaging was employed. AFM is a type of stylus profilometry. In this particular AFM technique, a micro-sized probe (tip) interacts with a cell surface with strictly controlled force. At each point of contact, the tip position and the “force plot” presenting mechanical interactions of the tip with a cell surface are recorded. Images are created during raster scanning by the tip. The parameters extracted from the force plots are assembled into topographical (cell morphology) and mechanical maps. The mechanical parameters include elasticity (i.e., pressure needed to indent the cell in a reversible manner), deformation (i.e., the depth of maximal indentation enforced by the probe without breaking the cell membrane), and adhesion (i.e., force needed to lift the tip from the cell surface during the probe withdrawal).
A single AFM scan also provides a shape of the cell to distinguish between epithelial-like and mesenchymal-like phenotypes, and roughness of the cell surface that correlates with activity of apoptotic and EMT pathways (Chen et al, 2013; Osmulski et al., 2014). The integrated inverted fluorescent microscope allows collecting correlative immunocytochemical data about the scanned cells (FIG. 7).
The probe (tip on a cantilever) indents (vertical movement) and scans (lateral movement) the cell surface. After 10-15 min scan of a 1000-2000 μm^2 area, 5 maps of cell morphology, surface topography, elasticity, deformation, and adhesion (FIG. 6) are computed from the force plots (FIG. 7) created for each of the 4000-65,500 single tip-cell contact points with horizontal resolution of 100 nm, vertical resolution of 10 nm and forces as low as 100 pN. It is established that cancerous cell are much softer, deformable and more adhesive than their normal counterparts (Osmulski et al., 2014).
Second, the drug decreases aggressiveness of CTCs. The decrease is apparent by comparison of mechanical phenotypes of CTCs isolated from mice xenografted with human cultured androgen-independent prostate cancer cells C4-2, and treated with vehicle or with B1 (30 mg/kg). The data are presented in FIGS. 11-16 and in Table 1 (FIG. 11 is an extended version of FIG. 8).

[4] = B1 maximum tolerated dose study; format: in vivo
Description: A study to determine the maximum tolerated dose was performed on 30 female CB. 17 SCID mice divided into six groups, five animals each. B1 was administered intravenously (i.v.) once a day (q.d.; three groups) or biweekly (three groups), at concentrations of 3 mg/kg, 10 mg/kg or 30 mg/kg, dissolved in 5% ethanol, 5% cremophor in water with 5% dextrose [D5W]. Mice were treated for 28 days, weighted daily on days 1-5 and then on a twice weekly schedule until day 28. They were observed frequently for adverse effects of treatment. […] Thus, B1 is non-toxic for mice even at the highest tested dose, 30 mg/kg.

[5] = PD/PK study in mice xenografted with RPMI 8226 cells; format: in vivo, SCID mice; conditions: single 30 mg/kg i.v.
Description: The study involved 11 female SCID mice, with 3 control mice injected with vehicle (5% ethanol, 5% cremophor in water with 5% dextrose [D5W]) and […] injected with B1. The presence of B1 was detected by mass spectrometry in the tumors of B1-injected mice 8 and 12 hours post-injection, at concentrations up to 30.5 ng/g.

[6] = system: M1-polarized macrophages from U937 cells; test: Live cell counts of U937-derived M1-type model macrophages; format: cell-based, Human; conditions: 1 μM B1, n=4
Description: (§3) FIGS. 17A-B: Model M2-polarized macrophages are sensitive to the treatment with B1, in contrast to model M1-polarized macrophages. (FIG. 17A) Human cultured monocytic U937 cells were in vitro differentiated into M0 macrophages and then polarized into M1-type and M2-type macrophages, in the presence of vehicle (DMSO; control) or in the presence of 1 μM B1. The inventors used established protocol to differentiate U937 cells into macrophages (M0) with PMA (phorbol myristate acetate) and then polarize them into model M1 and M2-like types with interferon γ and LPS (lipopolysaccharide) or interleukins IL-4 and IL-13, respectively. The identity of M1-type and M2-type model macrophages was confirmed by cell staining with specific markers: the fluorescent antibodies recognizing surface proteins CD80 (for M1) and CD163 (for M2). (FIG. 17B) Counts of live cells cultured in the presence or absence of B1 are presented.
(§4) And fourth, the anti-M2 macrophages actions were confirmed in cell culture model.

[7] = system: M2-polarized macrophages from U937 cells; test: Live cell counts of U937-derived M2-type model macrophages; format: cell-based, Human; conditions: 1 μM B1, T test, n=4
Description: as §3, §4

[8] = system: human cultured androgen-independent prostate cancer cells C4-2; test: Efficacy study in NOD-SCID mice xenografted with C4-2 cells; format: in vivo
Description: FIG. 18. […] The efficacy study was performed with mice xenografted with human cultured androgen-independent prostate cancer cells C4-2. The study involved eleven NOD-SCID mice. […] tumor-growing mice were treated intra-tumorally (IT) with 30 mg/kg B1 twice a week for up to three weeks. The control group (four mice) received a B1 vehicle (dimethylsulfoxide; DMSO). Tumor sizes were measured twice a week.

[9] = system: human C4-2 prostate cancer cells; test: Liver micrometastasis by H&E histology in C4-2 tumor-bearing nude mice; format: in vivo
From the text: FIG. 10: H&E stained histological liver slices of control nude mice with a tumor induced using human C4-2 prostate cancer cells. Suspected micrometastasis sites are marked with black rings. A scale bar represents 500 μm. Micrometastasis was detected with an average frequency in the control group (untreated) 3.75 per mice, whereas in the B1 treated group it was 1.33 per mice.
as §1

proteasome = conditions: cited from earlier work
mTOR pathway = conditions: cited from earlier work
[10] = system: cultured breast cancer cells; conditions: breast cancer cells poorly responsive to bortezomib; cited from earlier work
[11] = B1 treated vs control mice (FIG. 16)
[12] = mice with xenografted prostate tumors
[13] = one B1-treated vs one vehicle mouse (FIG. 5)
[14] = seven control and six treated nude mice, B1 30 mg/kg

COc1cc(CCCOC(=O)C2CCCCN2C(=O)C(=O)C2CCCCC2)cc(OC)c1OC (stereo not drawn) [Compound B1, 3-(3,4,5-trimethoxyphenyl)propyl 1-(2-cyclohexyl-2-oxoacetyl) piperidine-2-carboxylate]
tumor size relative to the size at the start of treatment ([1]; one nude mouse, C4-2 xenograft, B1 30 mg/kg intratumorally biweekly, four weeks (FIG. 2)): about 50% | difference in tumor volume increase between control and B1-treated tumors ([1]; selected group of seven control and six B1-treated mice): no significant difference | number of highly invasive post-EMT CTCs [2, 11]: diminished | formation of CTCs clusters ([2]; B1 treated vs control mice, heat map cluster analysis (FIG. 16)): diminished formation | decrease of abundance of cancer cells in the blood stream vs vehicle [2, 12]: about five-fold | numbers of CTCs in blood vs vehicle-treated mouse ([2]; one B1-treated vs one vehicle mouse, 30 mg/kg intratumorally, EpCAM or vimentin (FIG. 4)): significantly lower | ratio of pro-tumor (M2) and anti-tumor (M1) macrophages (M1 and M2 macrophages; B1-treated mouse, blood (control mouse 2.5)): ~0.5 | formation of CTC-M2 (chaperoning) clusters (M1 and M2 macrophages; [11]): limited formation | formation of M1-CTC (predatory) clusters (M1 and M2 macrophages; [11]): enhanced formation | decrease of chaperone immune cells (M2 macrophages) vs vehicle (M1 and M2 macrophages; [12]): about four-fold | decrease of the ratio of M2 macrophages to M1 macrophages vs vehicle-treated mouse (M1 and M2 macrophages; [12]): five-fold | M2 pro-tumor macrophages, control mouse relative to B1-treated mouse (M1 and M2 macrophages; [13]): more than four-times | number of M1 predator (anti-tumor) macrophages vs control mouse (M1 and M2 macrophages; [13]): very similar | numbers of circulating macrophages vs vehicle-treated mouse (M1 and M2 macrophages; one B1-treated vs one vehicle mouse, 30 mg/kg intratumorally): much lower | number of anti-cancer M1-type macrophages vs control (M1 and M2 macrophages; [14]): larger number | number of pro-cancer M2-type macrophages vs control (M1 and M2 macrophages; [14]): generally lower number | CTC adhesion vs vehicle ([3]; AFM (FIG. 8, FIG. 11)): less adhesive | CTC deformation vs vehicle ([3]; AFM (FIG. 8, FIG. 11)): less deformable | CTC stiffness (elasticity, Young modulus) vs vehicle ([3]; AFM (FIG. 8, FIG. 11)): harder; also recorded: stiffer | aggressiveness of CTCs ([3]; mechanical phenotype): low aggressiveness; also recorded: significantly lowered aggressiveness | toxicity at the highest tested dose ([4]; 30 mg/kg i.v., mice): non-toxic | adverse effects on behavior ([4]; i.v. q.d. or biweekly, 3, 10 or 30 mg/kg, 28 days): no adverse effects | differences in body weight between the groups ([4]; i.v. q.d. or biweekly, 3, 10 or 30 mg/kg, 28 days (FIG. 9)): No statistically significant differences | concentration of B1 in the tumors ([5]; 8 and 12 hours post-injection, mass spectrometry): up to 30.5 ng/g | tissue localization ([5]; RPMI 8226 xenograft): localized to the xenografted tumor site | counts of live M1 model macrophages vs control [6]: did not affect viability; also recorded: did not differ | counts of live M2-type model macrophages vs control [7]: significantly attenuating viability; also recorded: the difference was statistically significant | changes in the weight of animals ([8]; 30 mg/kg B1 intra-tumorally twice a week): did not result in detectable changes | tumor growth vs control group ([8]; 30 mg/kg B1 intra-tumorally twice a week for up to three weeks (FIG. 18)): Significant inhibition; also recorded: significantly attenuated | incidence of micrometastases in livers vs controls ([9]; B1-treated mice (FIG. 10)): decreased incidence | average frequency of liver micrometastasis ([9]; B1 treated group (untreated control 3.75)): 1.33 per mice | 26S assembling (proteasome): interferes with 26S assembling | affinity of core particle toward bortezomib (proteasome): increases affinity | concentration at which proteasome activities are influenced (proteasome): nanomolar concentrations | effect on mTOR pathway (mTOR pathway): not affecting | cytotoxic effects with bortezomib [10]: strong cytotoxic effects
